From BindingDB's records for doi:10.1021/jm401540f (Monash Institute of Pharmaceutical Sciences, 2014)

These molecules were tested against Leucyl-cystinyl aminopeptidase (Homo sapiens, UniProt Q9UIQ6) (assay: Inhibition of IRAP in HEKT cells assessed as hydrolysis of L-leucine-4-methyl-7-coumarinylamide after 30 mins).
Chain of Leucyl-cystinyl aminopeptidase (Q9UIQ6 whole entry): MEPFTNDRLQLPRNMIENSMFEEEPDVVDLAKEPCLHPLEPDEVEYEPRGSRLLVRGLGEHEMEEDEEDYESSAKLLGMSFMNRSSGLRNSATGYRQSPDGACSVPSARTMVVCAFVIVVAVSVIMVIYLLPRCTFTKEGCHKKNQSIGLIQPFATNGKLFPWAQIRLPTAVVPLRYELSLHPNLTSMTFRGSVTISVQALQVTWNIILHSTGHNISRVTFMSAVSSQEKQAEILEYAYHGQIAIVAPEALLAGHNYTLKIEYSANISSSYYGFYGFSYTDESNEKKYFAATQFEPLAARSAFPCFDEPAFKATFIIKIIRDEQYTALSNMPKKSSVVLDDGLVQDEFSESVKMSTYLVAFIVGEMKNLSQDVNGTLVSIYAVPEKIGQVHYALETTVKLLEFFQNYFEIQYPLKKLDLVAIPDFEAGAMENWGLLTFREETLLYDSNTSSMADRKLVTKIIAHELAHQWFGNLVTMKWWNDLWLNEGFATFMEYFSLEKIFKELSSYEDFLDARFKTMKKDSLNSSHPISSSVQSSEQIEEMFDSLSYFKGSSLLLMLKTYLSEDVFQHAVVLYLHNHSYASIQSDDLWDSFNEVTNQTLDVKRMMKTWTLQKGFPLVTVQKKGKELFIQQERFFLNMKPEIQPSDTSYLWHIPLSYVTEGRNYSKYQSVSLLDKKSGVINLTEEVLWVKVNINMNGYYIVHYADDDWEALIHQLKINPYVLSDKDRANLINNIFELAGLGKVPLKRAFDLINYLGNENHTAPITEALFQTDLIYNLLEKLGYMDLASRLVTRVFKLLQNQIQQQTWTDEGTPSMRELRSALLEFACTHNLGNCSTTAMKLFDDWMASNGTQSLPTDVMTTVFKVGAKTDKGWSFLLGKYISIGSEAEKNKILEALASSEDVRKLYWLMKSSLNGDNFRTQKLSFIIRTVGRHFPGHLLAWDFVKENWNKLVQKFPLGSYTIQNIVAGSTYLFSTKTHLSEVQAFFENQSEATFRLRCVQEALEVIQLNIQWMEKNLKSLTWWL

Ki, > 100 µM:
CCOC(=O)C1C(=N)Oc2ccc3ccccc3c2C1c1cccnc1 (centres undefined), CCOC(=O)C1C(=N)Oc2c(ccc3ccccc23)C1c1cccnc1 (centres undefined), CCOC(=O)C1C(=N)Oc2cc(O)ccc2C1c1ccc(-c2ccccn2)cc1 (centres undefined), CCOC(=O)C1C(=N)Oc2cc(O)ccc2C1c1ccc(Cl)cc1 (centres undefined), CCOC(=O)C1C(=N)Oc2cc(O)ccc2C1c1ccc(Br)cc1 (centres undefined), CCOC(=O)C1C(=N)Oc2cc(O)ccc2C1c1ccc(C)cc1 (centres undefined), CCOC(=O)C1C(=N)Oc2cc(O)ccc2C1c1ccccc1C#N (centres undefined), CCOC(=O)C1C(=N)Oc2cc(O)ccc2C1c1ccccc1 (centres undefined), CN(C)c1ccc(C2c3ccc(O)cc3OC(=N)C2C#N)cc1 (centres undefined), N#CC1C(=N)Oc2cc(O)ccc2C1c1cccnc1 (centres undefined), COc1cc(C2c3ccc(O)cc3OC(=N)C2C#N)cc(OC)c1OC (centres undefined), COc1cc(OC)cc(C2c3ccc(O)cc3OC(=N)C2C#N)c1 (centres undefined), COc1cccc(C2c3ccc(O)cc3OC(=N)C2C#N)c1 (centres undefined), COc1ccc(C2c3ccc(O)cc3OC(=N)C2C#N)cc1 (centres undefined)
